Measurements taken from the supplement of paper PMC10307832.

What was measured:
Assay in all cases: relative viability (nuclei count vs DMSO), 5 days (fraction); higher = more cells survive
[1] = compound: CCN(CC)CCNC(=O)c1c(C)[nH]c(/C=C2\C(=O)Nc3ccc(F)cc32)c1C [Sunitinib] + COc1cccc2cc(-c3nc([C@H]4CC[C@H](C(=O)O)CC4)n4ncnc(N)c34)[nH]c12 [OSI-027] (partner 0.5 µM)
Procedure, shortened: (§1)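 Lung cancer cell lines in 1536-well plates got either a single drug or a fixed anchor-drug dose together with five library-drug doses (not always all listed) in √10 steps, by pin tool, on the day after seeding. Nuclei were counted after 5 days, and relative viability is the treated-to-vehicle ratio of nuclei counts. Values are medians of duplicate plates.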

[2] = compound: CCN(CC)CCNC(=O)c1c(C)[nH]c(/C=C2\C(=O)Nc3ccc(F)cc32)c1C [Sunitinib] + CC(=O)Nc1cccc(-n2c(=O)n(C3CC3)c(=O)c3c(Nc4ccc(I)cc4F)n(C)c(=O)c(C)c32)c1 [Trametinib] (partner 0.02 µM)
Procedure, shortened: as §1

[3] = compound: CCN(CC)CCNC(=O)c1c(C)[nH]c(/C=C2\C(=O)Nc3ccc(F)cc32)c1C [Sunitinib] + N=C(N)NC(=N)NCCc1ccccc1 [Phenformin] (partner 250 µM)
Procedure, shortened: as §1

[4] = compound: CCN(CC)CCNC(=O)c1c(C)[nH]c(/C=C2\C(=O)Nc3ccc(F)cc32)c1C [Sunitinib] + C[C@@H](Oc1cc(-c2cnn(C3CCNCC3)c2)cnc1N)c1c(Cl)ccc(F)c1Cl [Crizotinib] (partner 1 µM)
Procedure, shortened: as §1

| Cell Line | relative viability ([1]; first compound 0.02 µM) | relative viability ([1]; first compound 0.06325 µM) | relative viability ([1]; first compound 0.2 µM) | relative viability ([1]; first compound 0.6325 µM) | relative viability ([1]; first compound 2 µM) | relative viability ([2]; first compound 0.02 µM) | relative viability ([2]; first compound 0.06325 µM) | relative viability ([2]; first compound 0.2 µM) | relative viability ([2]; first compound 0.6325 µM) | relative viability ([2]; first compound 2 µM) | relative viability ([3]; first compound 0.02 µM) | relative viability ([3]; first compound 0.06325 µM) | relative viability ([3]; first compound 0.2 µM) | relative viability ([3]; first compound 0.6325 µM) | relative viability ([3]; first compound 2 µM) | relative viability ([4]; first compound 0.02 µM) | relative viability ([4]; first compound 0.06325 µM) | relative viability ([4]; first compound 0.2 µM) | relative viability ([4]; first compound 0.6325 µM) | relative viability ([4]; first compound 2 µM) |
| --- | --- | --- | --- | --- | --- | --- | --- | --- | --- | --- | --- | --- | --- | --- | --- | --- | --- | --- | --- | --- |
| NCI-H1755 | 0.745 | 0.821 | 0.743 | 0.748 | 0.761 | 0.763 | 0.768 | 0.92 | 0.736 | 0.767 | 0.574 | 0.672 | 0.675 | 0.692 | 0.642 | 0.753 | 0.874 | 0.89 | 0.904 | 0.857 |
| NCI-H1792 | 0.667 | 0.716 | 0.829 | 0.691 | 0.481 | 0.463 | 0.417 | 0.533 | 0.442 | 0.377 |  | 0.381 | 0.351 | 0.418 | 0.31 | 0.821 | 1.03 | 1.22 | 0.979 | 1.01 |
| NCI-H1915 | 0.605 | 0.645 | 0.71 | 0.612 | 0.618 | 0.291 | 0.291 | 0.304 | 0.298 | 0.261 | 0.348 | 0.396 | 0.43 | 0.367 | 0.368 |  | 0.911 | 0.998 | 0.911 | 0.966 |
| NCI-H1944 | 0.365 | 0.437 | 0.514 | 0.513 | 0.409 | 0.401 | 0.423 | 0.457 | 0.437 | 0.43 | 0.183 | 0.206 | 0.214 | 0.203 | 0.199 |  | 1.06 | 1.34 | 1.24 | 1.18 |
| NCI-H1975 | 0.62 | 0.826 | 0.805 | 0.633 | 0.498 | 0.322 | 0.361 | 0.33 | 0.421 | 0.316 | 0.399 | 0.442 | 0.425 | 0.427 | 0.393 | 0.885 | 0.96 | 1.05 | 0.954 |  |
| NCI-H1993 | 0.598 | 0.482 | 0.551 | 0.568 | 0.554 | 0.51 | 0.53 | 0.448 | 0.424 | 0.651 | 0.541 | 0.501 | 0.545 | 0.479 | 0.53 | 0.846 | 0.741 | 0.872 | 0.966 | 0.74 |
| NCI-H2009 | 0.578 | 0.772 | 0.704 | 0.771 | 0.666 | 0.242 | 0.332 | 0.274 | 0.25 | 0.181 | 0.446 | 0.501 | 0.461 | 0.465 | 0.429 | 1.01 | 1.03 | 1.16 | 1.13 | 1.04 |
| NCI-H2023 | 0.341 | 0.437 | 0.399 | 0.398 | 0.289 | 0.425 | 0.615 | 0.614 | 0.454 | 0.444 | 0.391 | 0.446 | 0.519 | 0.459 | 0.385 | 0.628 | 0.67 | 0.792 | 0.654 | 0.667 |
